Read-outs that look alike come from different tables or passages of the source.
Test system: smooth muscle cells (SMC)
Assay: anti-proliferation assay (perlecan)
Format: cell-based
Conditions: anti-proliferation assay (perlecan)
Experimental: The activity scale used in Table 3 as follows (numbers are inclusive): “+++” represents IC50 of less than about 3 μM; “++” represents IC50 of between about 3 and about 7 μM; and “+” represents IC50 of greater than about 7 μM. In addition, compounds, to include compositions thereof, encompassed within the scope of structures Ia-XXIVa, respectively, or listed in Tables 1A and 1E may be likewise employed in this embodiment and/or aspect of the present invention. Further, any hydrogen atoms that are required for any atom to attain its usual valence in a structure presented in Table 3, whether a carbon atom or a heteroatom, should be inferred if it is not specifically indicated.
In addition to the above compounds, the following compounds and compositions comprising these compounds are active in an anti-proliferation assay (Perlecan). These compounds and compositions comprising these compounds are, among other things, generally useful for treating cardiovascular disorders associated with proliferative activity. Specifically, these compounds include N^2-cycloheptyl-N^4-(3-fluoro-4-methoxyphenyl)-N^6-methyl-N^6-(1-methyl-piperidin-4-yl)-1,3,5-triazine-2,4,6-triamine, and N^2-cycloheptyl-N^4-methyl-N^4-(1-methyl-piperidin-4-yl)-N^6-naphthalen-2-yl-1,3,5-triazine-2,4,6-triamine.
Methods for identifying the activity and screening for one or more of these compounds or molecules that induce synthesis of proteoglycans such as HSPG (heparan sulfate proteoglycan) are taught in U.S. patent application Ser. No. 10/091,357, which is incorporated herein in its entirety. Assays of effects of compounds in vivo are also taught in the incorporated references and are known to those skilled in the art. In general, methods comprise the addition of such compounds to assays and measurement of HSPG synthesis including, but not limited to, the production of syndecans, glypicans and perlecans, for example, syndecans 1, 2 and 4; and glypican-1. Other assays that can be used to determine the activity of the compounds of the present invention include other methods for measuring the induction of perlecan synthesis. For example, in one assay, perlecan is induced in cells by certain inducers, and the response is measured. Compounds of the present invention are then added to a replicate assay and the effect on perlecan induction is determined. Using such methods, compounds are determined that can either inhibit perlecan, elevate induction of perlecan, or that have no effect at all. Those compounds that are effective as therapeutic agents can then be used in animals, humans or patients with cellular proliferation disease aspects, such as vascular-associated diseases or SMC proliferation pathologies.
Another assay for determining compounds having SMC effects comprises adding a composition suspected of affecting SMC proliferation to smooth muscle cells in growth medium or serum-free medium. The change in cell proliferation can be measured by methods known to those skilled in the art, such as incorporation of labeled nucleotides into dividing cells' DNA, and compared to the proliferation of cells which are not treated with the compound. Other measurements include directly determining levels of HSPG synthesis by measuring the amount or change in amount of HSPG such as with ELISA for HSPGs, and compared to the amount of HSPG synthesis in untreated cells. Other indirect or direct measurement are contemplated by the present invention and are known to those skilled in the art. For example, such methods include, but are not limited to, measurement of RNA levels, RT-PCR, Northern blotting, Western blotting promoter-based assays to identify compounds that affect one or more proteoglycans and assays for proteoglycan biological activity shown by recombinant proteins, partially purified proteins, or lysates from cells expressing proteoglycans in the presence or absence of compounds of interest.

[1] = class of IC50, read-out: Activity (note 1)
[2] = some cells print no unit, read-out: Avg IC-50

SMILES | IC50 [1] | IC50 [2]
COc1ccc(Nc2nc(NC3CCCCCC3)nc(OCC3CCCN3C)n2)cc1Cl (centres unmarked) [drawing 575, N-(3-Chloro-4-methoxy-phenyl)-N′-cyclo-heptyl-6-(1-methyl-pyr-rolidin-2-ylmethoxy)-[1,3,5]tri-azine-2,4-diamine] | 3000 to 7000 nM | 5000 nM
COc1ccc(Nc2nc(NC3CCCCCC3)nc(OC3CCN(C)CC3)n2)cc1Cl [drawing 576, N-(3-Chloro-4-methoxy-phenyl)-N′-cyclo-heptyl-6-(1-methyl-piper-idin-4-yloxy)-[1,3,5]triazine-2,4-di-amine] | 3000 to 7000 nM | 5700 nM
COc1ccc(Nc2nc(NC3CCCCCC3)nc(OC3CCCN(C(C)=O)C3)n2)cc1Cl (centres unmarked) [drawing 577, 1-{3-[4-(3-Chloro-4-methoxy-phenyl-amino)-6-cyclo-heptylamino-[1,3,5]triazin-2-yl-oxy]-piperidin-1-yl}-ethanone] | 3000 to 7000 nM | 6500 nM
COc1ccc(Nc2nc(NC3CCCCCC3)nc(OC(C)C)n2)cc1Cl [drawing 578, N-(3-Chloro-4-methoxy-phenyl)-N′-cyclo-heptyl-6-isopropoxy-[1,3,5]tri-azine-2,4-diamine] | 3000 to 7000 nM | 6500 nM
COc1ccc(Nc2nc(NC3CCCCCC3)nc(Oc3ccc(C#CC(C)(C)O)cc3)n2)cc1Cl [drawing 579, 4-{4-[4-(3-Chloro-4-methoxy-phenyl-amino)-6-cyclo-heptylamino-[1,3,5]triazin-2-yl-oxy]-phenyl}-2-methyl-but-3-yn-2-ol] | < 3000 nM | 1900 nM
COc1ccc(Nc2nc(NC3CCCCCC3)nc(Oc3ccccc3C#CC(C)(C)O)n2)cc1Cl [drawing 580, 4-{2-[4-(3-Chloro-4-methoxy-phenyl-amino)-6-cyclo-heptylamino-[1,3,5]triazin-2-yl-oxy]-phenyl}-2-methyl-but-3-yn-2-ol] | < 3000 nM | 2800 nM
CCN1CCCC(Oc2nc(Nc3ccc(OC)c(Cl)c3)nc(NC3CCCCCC3)n2)C1 (centres unmarked) [drawing 581, N-(3-Chloro-4-methoxy-phenyl)-N′-cyclo-heptyl-6-(1-ethyl-piper-idin-3-yloxy)-[1,3,5]triazine-2,4-di-amine] | 3000 to 7000 nM | 4200 nM
COc1ccc(Nc2nc(NC3CCCCCC3)nc(Oc3ccc(C=O)cc3)n2)cc1Cl [drawing 582, 4-[4-(3-Chloro-4-methoxy-phenyl-amino)-6-cyclo-heptylamino-[1,3,5]triazin-2-yl-oxy]-benzaldehyde] | 3000 to 7000 nM | 4500 nM
COc1ccc(Nc2nc(NC3CCCCCC3)nc(Oc3ccc(/C=N\O)cc3)n2)cc1Cl [drawing 583, 4-[4-(3-Chloro-4-methoxy-phenyl-amino)-6-cyclo-heptylamino-[1,3,5]triazin-2-yl-oxy]-benzaldehyde oxime] | < 3000 nM | 720 nM
COc1ccc(Nc2nc(NC(C)C)nc(Oc3ccc(C#CC(C)(C)O)cc3)n2)cc1Cl [drawing 584, 4-{4-[4-(3-Chloro-4-methoxy-phenyl-amino)-6-isopropylamino-[1,3,5]tri-azin-2-yloxy]-phenyl}-2-meth-yl-but-3-yn-2-ol] | 3000 to 7000 nM | 3350 nM
COc1ccc(Nc2nc(NC3CCCCCC3)nc(OCC3CCCO3)n2)cc1Cl (centres unmarked) [drawing 586, N-(3-Chloro-4-methoxy-phenyl)-N′-cyclo-heptyl-6-(tetrahydro-furan--2-ylmethoxy)-[1,3,5]tri-azine-2,4-diamine] | < 3000 nM | 1250 nM
COc1ccc(Nc2nc(NCC3CCCO3)nc(NC3CCCCCC3)n2)cc1Cl (centres unmarked) [drawing 587, N-(3-Chloro-4-methoxy-phenyl)-N′-cyclo-heptyl-N″-(tetrahydro-furan--2-ylmethyl)-[1,3,5]triazine-2,4,6-tri-amine] | < 3000 nM | 1360 nM
COc1ccc(Nc2nc(NCCNC(=O)OC(C)(C)C)nc(NC3CCCCCC3)n2)cc1Cl [drawing 588, {2-[4-(3-Chloro-4-methoxy-phenyl-amino)-6-cyclo-heptylamino-[1,3,5]triazin-2-yl-amino]-ethyl}-carbamic acidtert-butyl ester] | < 3000 nM | 1250 nM

From US7335770B2, “Triazine compounds and their analogs, compositions, and methods” (Reddy U5 Therapeutics, Inc., priority 2004, dated 2008)
